biological target: Factor D (Homo sapiens (Human), UniProt P00746); assay: Factor D esterolytic assay (Z-Lys-SBzl substrate, DTNB, 405 nm); format: biochemical; settings: Z-Lys-SBzl 1.29 mM, pH 7.5, 10% DMSO, tested a minimum of three times, read-out: Measured Ki (IC50) Value for Compounds: IC50
Procedure, shortened: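 Human Factor D ([…]) with 1.29 mM Z-Lys-SBzl in 100 mM HEPES, 500 mM NaCl, pH 7.5, 10% DMSO; substrate added immediately or after room-temperature preincubation. Released thiol reacted with DTNB, rate followed at 405 nm for 600 sec, 690 nm background subtracted. IC50 from percent inhibition versus uninhibited rate, n≥3.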

Chain of Factor D (P00746 26-253): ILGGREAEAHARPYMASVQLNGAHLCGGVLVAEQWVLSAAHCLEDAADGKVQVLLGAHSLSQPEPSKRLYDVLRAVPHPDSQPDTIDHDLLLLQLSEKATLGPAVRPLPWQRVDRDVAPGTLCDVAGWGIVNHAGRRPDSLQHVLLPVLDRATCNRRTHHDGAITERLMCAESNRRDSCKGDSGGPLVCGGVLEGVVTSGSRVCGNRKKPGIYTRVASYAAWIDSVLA

Row | Compound | IC50 [nM]
1 | Cn1ncc2c(-c3ccnc(CN)c3)cc(COc3ccccc3CC(=O)O)cc21 [Compound 135c, 2-(2-((4-(2-(aminomethyl)pyridin-4-yl)-1-methyl-1H-indazol-6-yl)methoxy)phenyl)acetic acid] | < 1000
2 | NCc1cccc(-c2nc(C(=O)Nc3sccc3CC(=O)O)cc3ccoc23)c1 [Compound 41d, 2-(2-(7-(3-(aminomethyl)phenyl)furo[2,3-c]pyridine-5-carboxamido)thiophen-3-yl)acetic acid] | < 1000
3 | NCc1cccc(-c2cc(N(Cc3ccccc3CC(=O)O)C(=O)OCc3ccccc3)cc3ccoc23)c1 [Compound 404c, 2-(2-(((7-(3-(aminomethyl)phenyl)benzofuran-5-yl)((benzyloxy)carbonyl)amino)methyl)phenyl)acetic acid] | < 1000
4 | COc1ccc(CC(=O)O)c(OCc2cc(-c3ccnc(CN)c3)c3ccn(C(C)C)c3c2)c1 [Compound 447d, 2-(2-((4-(2-(aminomethyl)pyridin-4-yl)-1-isopropyl-1H-indol-6-yl)methoxy)-4-methoxyphenyl)acetic acid] | < 1000
5 | NCc1cccc(-c2cc(COc3ccccc3CC(=O)O)cc3[nH]c(C(F)(F)F)cc23)c1F [Compound 501f, 2-(2-((4-(3-(aminomethyl)-2-fluorophenyl)-2-(trifluoromethyl)-1H-indol-6-yl)methoxy)phenyl)acetic acid] | < 1000
6 | NCc1cccc(-c2cc(COc3cc(F)ccc3CC(=O)O)cc3ccoc23)c1 [Compound 260g, 2-(2-((7-(3-(aminomethyl)phenyl)benzofuran-5-yl)methoxy)-4-fluorophenyl)acetic acid] | < 1000
7 | NCc1cccc(-c2cc(C(=O)Nc3ccccc3CC(=O)O)cc3cc[nH]c23)c1 [Compound 158c, 2-(2-(7-(3-(aminomethyl)phenyl)-1H-indole-5-carboxamido)phenyl)acetic acid] | 1000 to 10000
8 | NCc1cccc(-c2cc(C(=O)Nc3ccccc3CC(=O)O)c3nccn3c2)c1 [Compound 6e, 2-(2-(6-(3-(aminomethyl)phenyl)imidazo[1,2-a]pyridine-8-carboxamido)phenyl)acetic acid] | 1000 to 10000
9 | COc1ccc(CC(=O)O)c(OCc2cc(-c3cccc(CN)c3)c3occ(C(F)(F)F)c3c2)c1 [Compound 488c, 2-(2-((7-(3-(aminomethyl)phenyl)-3-(trifluoromethyl)benzofuran-5-yl)methoxy)-4-methoxyphenyl)acetic acid] | < 1000
10 | NCc1cccc(-c2cc(C(=O)Nc3ccccc3CC(=O)O)c3ncnn3c2)c1 [Compound 20e, 2-(2-(6-(3-(aminomethyl)phenyl)-[1,2,4]triazolo[1,5-a]pyridine-8-carboxamido)phenyl)acetic acid] | > 10000
11 | CNCc1cc2cc(COc3ccccc3CC(=O)O)cc(-c3cccc(CN)c3)c2o1 [Compound 138f, 2-(2-((7-(3-(aminomethyl)phenyl)-2-((methylamino)methyl)benzofuran-5-yl)methoxy)phenyl)acetic acid] | < 1000
12 | CS(=O)(=O)n1ccc2c(-c3cccc(CN)c3F)cc(COc3ccccc3CC(=O)O)cc21 [Compound 198b, 2-(2-((4-(3-(aminomethyl)-2-fluorophenyl)-1-(methylsulfonyl)-1H-indol-6-yl)methoxy)phenyl)acetic acid] | < 1000
13 | NCc1cccc(-c2nc(C(=O)Nc3ccccc3CC(=O)O)nc3[nH]ccc23)c1 [Compound 3i, 2-(2-(4-(3-(aminomethyl)phenyl)-7H-pyrrolo[2,3-d]pyrimidine-2-carboxamido)phenyl)acetic acid] | < 1000
14 | Cc1coc2c(-c3cccc(CN)c3)cc(COc3ccccc3CC(=O)O)cc12 [Compound 382h, 2-(2-((7-(3-(aminomethyl)phenyl)-3-methylbenzofuran-5-yl)methoxy)phenyl)acetic acid] | < 1000
15 | COc1ccc(CC(=O)O)c(OCc2cc(-c3cccc(CN)c3F)c3ccn(C(C)C)c3c2)c1 [Compound 357b, 2-(2-((4-(3-(aminomethyl)-2-fluorophenyl)-1-isopropyl-1H-indol-6-yl)methoxy)-4-methoxyphenyl)acetic acid] | < 1000
16 | CC(=O)c1ccc(CC(=O)O)c(OCc2cc(-c3ccnc(CN)c3)c3occc3c2)c1 [Compound 511e, 2-(4-acetyl-2-((7-(2-(aminomethyl)pyridin-4-yl)benzofuran-5-yl)methoxy)phenyl)acetic acid] | < 1000
17 | Cc1cc2cc(COc3ccccc3CC(=O)O)cc(-c3cccc(CN)c3)c2o1 [Compound 84f, 2-(2-((7-(3-(aminomethyl)phenyl)-2-methylbenzofuran-5-yl)methoxy)phenyl)acetic acid] | < 1000
18 | COCc1cc2cc(COc3ccccc3CC(=O)O)cc(-c3ccnc(CN)c3)c2o1 [Compound 132b, 2-(2-((7-(2-(aminomethyl)pyridin-4-yl)-2-(methoxymethyl)benzofuran-5-yl)methoxy)phenyl)acetic acid] | < 1000

Row | Compound | IC50 [nM]
19 | NCc1cccc(-c2nc(C(=O)Nc3ccccc3CC(=O)O)nc3ccsc23)c1 [Compound 31f, 2-(2-(4-(3-(aminomethyl)phenyl)thieno[3,2-d]pyrimidine-2-carboxamido)phenyl)acetic acid] | < 1000
20 | Cc1ccc(CC(=O)O)c(OCc2cc(-c3cccc(CN)c3)c3oc(C)cc3c2)c1 [Compound 423c, 2-(2-((7-(3-(aminomethyl)phenyl)-2-methylbenzofuran-5-yl)methoxy)-4-methylphenyl)acetic acid] | < 1000
21 | COCc1cc2cc(COc3cc(C(C)=O)ccc3CC(=O)O)cc(-c3ccnc(CN)c3F)c2o1 [Compound 530c, 2-(4-acetyl-2-((7-(2-(aminomethyl)-3-fluoropyridin-4-yl)-2-(methoxymethyl)benzofuran-5-yl)methoxy)phenyl)acetic acid] | < 1000
22 | NC(CF)c1cc(-c2cc(COc3ccccc3CC(=O)O)cc3ccoc23)ccn1 (single isomer, unassigned; (+)) [Compound 327d, (+)-2-(2-((7-(2-(1-amino-2-fluoroethyl)pyridin-4-yl)benzofuran-5-yl)methoxy)phenyl)acetic acid] | < 1000
23 | NCc1cc(-c2cc(COc3ccc(F)cc3CC(=O)O)cc3ccoc23)ccn1 [Compound 329b, 2-(2-((7-(2-(aminomethyl)pyridin-4-yl)benzofuran-5-yl)methoxy)-5-fluorophenyl)acetic acid] | < 1000
24 | NCc1cccc(-c2cc(NC(=O)c3ccccc3N)cc3ccoc23)c1 [Compound 216d, 2-amino-N-(7-(3-(aminomethyl)phenyl)benzofuran-5-yl)benzamide] | > 10000
25 | NCc1cccc(-c2nc(COc3ccccc3CC(=O)O)nn3cccc23)c1 [Compound 8e, 2-(2-((4-(3-(aminomethyl)phenyl)pyrrolo[2,1-f][1,2,4]triazin-2-yl)methoxy)phenyl)acetic acid] | < 1000
26 | CC(=O)Nc1ccc(CC(=O)O)c(OCc2cc(-c3cccc(C(N)CF)c3)c3occc3c2)c1 (single isomer, unassigned; (+)) [Compound 434c, (+)-2-(4-acetamido-2-((7-(3-(1-amino-2-fluoroethyl)phenyl)benzofuran-5-yl)methoxy)phenyl)acetic acid] | < 1000
27 | NC(CF)c1cc(-c2cc(COc3ccccc3CC(=O)O)cc3ccoc23)ccn1 (single isomer, unassigned; (-)) [Compound 326g, (−)-2-(2-((7-(2-(1-amino-2-fluoroethyl)pyridin-4-yl)benzofuran-5-yl)methoxy)phenyl)acetic acid] | 1000 to 10000
28 | NCc1c(F)ccc(-c2cc(COc3ccccc3CC(=O)O)cc3ccoc23)c1F [Compound 75c, 2-(2-((7-(3-(aminomethyl)-2,4-difluorophenyl)benzofuran-5-yl)methoxy)phenyl)acetic acid] | < 1000
29 | N#Cc1ccc(CC(=O)O)c(OCc2cc(-c3cccc(CN)c3)c3oc(CO)cc3c2)c1 [Compound 422e, 2-(2-((7-(3-(aminomethyl)phenyl)-2-(hydroxymethyl)benzofuran-5-yl)methoxy)-4-cyanophenyl)acetic acid] | < 1000
30 | NCc1cccc(-c2cc(COc3ccc(CO)cc3CC(=O)O)cc3ccoc23)c1 [Compound 254c, 2-(2-((7-(3-(aminomethyl)phenyl)benzofuran-5-yl)methoxy)-5-(hydroxymethyl)phenyl)acetic acid] | < 1000
31 | NCc1cccc(-c2cc(COc3ccccc3CC(=O)O)cc3c2ccn3Cc2ccccc2)c1 [Compound 362e, 2-(2-((4-(3-(aminomethyl)phenyl)-1-benzyl-1H-indol-6-yl)methoxy)phenyl)acetic acid] | < 1000
32 | NCc1cccc(-c2cc(COc3ccccc3CC(=O)O)cc3ccoc23)c1F [Compound 56c, 2-(2-((7-(3-(aminomethyl)-2-fluorophenyl)benzofuran-5-yl)methoxy)phenyl)acetic acid] | < 1000
33 | NCc1cccc(-c2cc(COc3ccccc3CC(=O)O)cc3cc(CO)oc23)c1 [Compound 76f, 2-(2-((7-(3-(aminomethyl)phenyl)-2-(hydroxymethyl)benzofuran-5-yl)methoxy)phenyl)acetic acid] | < 1000
34 | CC(=O)Nc1ccc(CC(=O)O)c(OCc2cc(-c3cccc(CN)c3F)c3occc3c2)c1 [Compound 432c, 2-(4-acetamido-2-((7-(3-(aminomethyl)-2-fluorophenyl)benzofuran-5-yl)methoxy)phenyl)acetic acid] | < 1000
35 | Cc1noc2c(-c3cccc(CN)c3)cc(COc3ccccc3CC(=O)O)cc12 [Compound 191h, 2-(2-((7-(3-(aminomethyl)phenyl)-3-methylbenzo[d]isoxazol-5-yl)methoxy)phenyl)acetic acid] | < 1000
36 | Cc1cc(CC(=O)O)c(OCc2cc(-c3cccc(CN)c3F)c3occc3c2)cc1C [Compound 427b, 2-(2-((7-(3-(aminomethyl)-2-fluorophenyl)benzofuran-5-yl)methoxy)-4,5-dimethylphenyl)acetic acid] | < 1000
